# System: hESC-derived hippocampal neurons
# Test: Whole cell patch clamp of hippocampal neurons from dispersion culture of hESC-derived hippocampal tissue (sEPSC)
# Assay type: cell-based, human
# Conditions: DNQX 10 μM; voltage held at −60 mV; day 53 after dispersion
# Experimental: By a method similar to that in Example 7-1, continuous hippocampal tissues were subjected to dispersion culture. In this experiment, flat plane culture was performed by seeding on a glass or plastic dish, slide and the like. For culture, a glass or plastic surface was coated with poly-D-Lysine (100 μg/ml) at 37° C. for 3 hr, and Laminin 20 μg/ml/Fibronectin 8 μg/ml overnight at 37° C.
# The culture medium used for day 1-2 of dispersion was Neurobasal medium (Gibco/Invitrogen) added with 2% B27 supplement without vitamin A (Gibco/Invitrogen), 2 mM L-glutamine, 1% FBS, 20 ng/ml BDNF, 20 ng/ml NT-3, and 10 μM Y-27632. From day 3 of culture, Neurobasal medium (Gibco/Invitrogen) added with 2% B27 supplement without vitamin A (Gibco/Invitrogen), 2 mM L-glutamine, 10% FBS, BDNF 20 ng/ml, and NT-3 20 ng/ml was used and a half amount of the medium was exchanged every three days. […] Also, the cells obtained by dispersion culture by the same method were electrophysiologically analyzed by the Patch clamp technique. […] For sEPSC, time-course electric current was measured when the voltage was maintained at −60 mV, and the medicament used was DNQX (sigma, D0540) at a final concentration of 10 μM. As the action potential, the membrane potential upon […] stimulation was measured.
smiles,measurement,value
O=[N+]([O-])c1cc2nc(O)c(O)nc2cc1[N+](=O)[O-] [DNQX],spontaneous excitatory postsynaptic current (sEPSC),inhibited

# Reference: patent US11198850B2, “Method for manufacturing telencephalon or progenitor tissue thereof” (RIKEN, priority 2013, dated 2021)
